These are literature values, as cited in patent publication US8039023B1, “Composition for relief of menstrual cramps and muscle cramps” (priority 2009, dated 2011).

The test system of this data set is pain and muscle cramping symptoms. The note with it: prior art, various brands, typical.

For the compound `CC(=O)Nc1ccc(O)cc1` [acetaminophen], the “time after ingestion to reduced discomfort from pain and muscle cramping symptoms” value is given as “twenty to forty”.

With `CC(C)Cc1ccc(C(C)C(=O)O)cc1` (stereo not drawn) [ibuprofen], the “time after ingestion to reduced discomfort from pain and muscle cramping symptoms” value is “twenty to forty”.

Take `CC(=O)Oc1ccccc1C(=O)O` [aspirin]: the “time after ingestion to reduced discomfort from pain and muscle cramping symptoms” value is “twenty to forty”.
